From PMC4309172, “Binding of a fluorescence reporter and a ligand to an odorant-binding protein of the yellow fever mosquito, Aedes aegypti” (F1000Research, 2015)

How the values were obtained:
[1] = molecular target: T1, AaegOBP1 (odorant-binding protein, also named AaegOBP39) (Aedes aegypti, UniProt Q6Y2R8); assay: NPN fluorescence displacement/quenching, pH […]; Kd from decreasing phase only ([…]), fluorescence rises at higher doses
T1 construct: recombinant AaegOBP1 (AY189223), periplasmic expression in BL21(DE3), purified and delipidated
T1 sequence (Q6Y2R8 19-143): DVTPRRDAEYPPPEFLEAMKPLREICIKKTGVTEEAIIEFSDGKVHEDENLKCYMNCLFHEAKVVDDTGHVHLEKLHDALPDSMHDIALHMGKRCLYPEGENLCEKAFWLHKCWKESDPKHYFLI

[2] = molecular target: T1, AaegOBP1 (odorant-binding protein, also named AaegOBP39); assay: direct fluorescence titration with NPN, pH […] (Kd […] at pH […])

| Structure (SMILES) | Kd [1] | Kd [2] |
| --- | --- | --- |
| CCCCCCCCCC[C@H](OC(C)=O)[C@H]1CCCC(=O)O1 (racemic) [MOP, (5 R,6 S)-6-acetoxy-5-hexadecanolide] | 2640 ± 160 nM | – |
| c1ccc(Nc2cccc3ccccc23)cc1 [NPN, N-phenyl-1-naphthylamine] | – | 3310 ± 480 nM |
